Source: the METLIN SMRT retention time set (Domingo-Almenara et al. 2019)

Assay: gradient 5% acetonitrile 3 min, to 50% in 2 min, to 85% in 15 min, held 3 min, 100 µL/min
Details: column: Zorbax Extend-C18 2.1 x 50 mm; eluents: water / acetonitrile, 0.1% formic acid
Summary of the method: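 A Zorbax Extend-C18 column (2.1 × 50 mm, 1.8 μm) run at 100 μL/min with water and acetonitrile, both containing 0.1% formic acid, separated mixtures of ~100 pure standards. The HPLC was coupled to a quadrupole time-of-flight mass spectrometer operated in positive and negative ionization mode, with dead and dwell volumes of 40 μL and 900 μL. Each retention time was taken from a computationally picked adduct peak that was then manually inspected.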

Compound | RP-LC retention time [s]
CCCNC(=O)C1CCN(c2ccc(SCC(=O)NCc3ccc(C(F)(F)F)cc3)nn2)CC1 | 675
CCOc1ccc(S(=O)(=O)N2CCCC(C(=O)NCCCO)C2)cc1C (stereo not drawn) | 736
O=C(CCCn1c(=O)c2cccn2c2ccc(F)cc21)NCCN1CCCCCC1 | 635
COc1cccc(-c2nnc(NC(=O)C3CCCCC3)o2)c1 | 753
COc1ccc2nc(OC3CCN(C(=O)c4ccc(S(C)(=O)=O)cc4)CC3)sc2c1 | 774
c1ccc(-c2nc3cc(-c4noc(-c5ccncc5)n4)ccc3o2)cc1 | 1290
COc1ccc(OC)c(-c2cn3ccn(-c4cccc(F)c4)c(=O)c3n2)c1 | 835
CCOc1ccc(-c2noc(Cc3nnc(-c4cccc(Cl)c4)o3)n2)cc1 | 1140
CSc1ccc2c(c1)C(N1CCN(C)CC1)Cc1ccccc1S2 (stereo not drawn) | 869
O=C([C@@H]1C[C@H](F)CN1C(=O)NCCc1ccccc1)N1CCOCC1 | 608
Cc1ccc(C)c(CNC(=O)Cn2cnc3onc(C)c3c2=O)c1 | 764
COc1cccc(CNC(=O)CCc2c(-c3ccc(Br)cc3)nc3ccccn23)c1 | 698
CC(C)NC(=O)c1csc(N2CCCCC2)n1 | 919
O=C(Cn1cccc1-c1nnc(C2CCC2)o1)Nc1ccc(F)cc1 | 897
CC(C)N1C(=O)c2cccnc2Sc2cc(NC(=O)c3ccc(Cl)cc3)ccc21 | 964
COc1ccc(-c2nc3ncccn3c2Nc2ccc3c(c2)OCCO3)cc1 | 674
COc1cc(NC(=O)C2CC(=O)N(c3ccc4c(c3)CCN4C(C)=O)C2)cc(OC)c1 (stereo not drawn) | 694
Cc1cc(C)c2c(N3CCCC3)nc(C(=O)Nc3ccccc3C)nc2n1 | 671
Cc1cc(C)c2c(n1)SCC(=O)N2CCCC(=O)NCCCN1CC(C)CC(C)C1 (stereo not drawn) | 595

Compound | RP-LC retention time [s]
Cn1ccnc1N1CCN(C(=O)CSCc2ccccc2)CC1 | 571
N#CCNC(=O)c1ccc(-c2ccnc(Nc3ccc(N4CCOCC4)cc3)n2)cc1 | 719
N#CC1=CN(c2ccc(C(F)(F)F)cc2)c2ccccc2S1(=O)=O | 963
CCCn1cc(CCNC(=O)Nc2cc(C)ccc2C)c2cccnc21 | 808
CCN1c2ccccc2C(=O)NC12CCN(C(=O)c1cc(C)cc(C)c1)CC2 | 868
CCc1nc2cccnc2n1CCN1CCN(C(=O)Nc2ccc(Br)cc2F)CC1 | 624
Cc1cccc(CNC(=O)c2csc(C(=O)NC3CC3)n2)c1 | 824
CCn1nccc1C(=O)N1C[C@@H]2CCCN3CCC[C@@H]([C@H]23)[C@H]1CCCC(=O)N1CCOCC1 | 572
CCc1nc(-n2cccc2)sc1C(=O)Nc1ccc(F)cc1 | 1080
Nc1ncnc2c1cnn2C1CCCCC1 | 672
Cc1cccc(NC(=O)C2CCN(C(=O)c3ncn4c3COC(c3ccccc3)C4)CC2)c1 (stereo not drawn) | 798
O=C(C1CC1)N1CCCC(OCc2nc(-c3ccncc3)no2)C1 (stereo not drawn) | 619
Cn1c(=O)n(CC(=O)N2CCCCCC2)c(=O)c2cnc(-c3ccccc3)nc21 | 987
CCCCc1ccc(NC(=O)N2CC(c3nc(C)no3)C3(CCOCC3)C2)cc1 (stereo not drawn) | 914
CCOc1cncc(C(=O)N2CCCCC2C)c1 (stereo not drawn) | 725
CCSc1nnc(-c2nn(C)c3c2CN(C(=O)c2ccc(F)c(F)c2)CC3)n1C | 763
O=C(NCCc1csc(-c2ccccc2)n1)C1CCN(C(=O)c2cccc(Cl)c2)CC1 | 846
c1cc(CSc2cc(N3CCCC3)ncn2)ccn1 | 536
CCC(C)Sc1nnc(NC(=O)C2CCN(C(=O)c3ccccc3F)CC2)s1 (stereo not drawn) | 871
